Data taken from ChEMBL document CHEMBL4507292 (2021).

Columns and labels:
[1] = target: BDNF/NT-3 growth factors receptor (Homo sapiens) (UniProt Q16620); conditions: Compound concentration 1000.0 nM
[2] = target: Proto-oncogene tyrosine-protein kinase ROS (Homo sapiens) (UniProt P08922); conditions: Compound concentration 1000.0 nM
[3] = target: Serine/threonine-protein kinase Sgk2 (Homo sapiens) (UniProt Q9HBY8); conditions: Compound concentration 1000.0 nM
[4] = target: Tyrosine-protein kinase receptor UFO (Homo sapiens) (UniProt P30530); conditions: Compound concentration 1000.0 nM
[5] = target: cAMP-dependent protein kinase catalytic subunit alpha (Homo sapiens) (UniProt P17612); conditions: Compound concentration 1000.0 nM
[6] = target: Wee1-like protein kinase 2 (Homo sapiens) (UniProt P0C1S8); conditions: Compound concentration 1000.0 nM
[7] = target: Activated CDC42 kinase 1 (Homo sapiens) (UniProt Q07912); conditions: Compound concentration 1000.0 nM
[8] = target: Cyclin-dependent kinase 11B (Homo sapiens) (UniProt P21127); conditions: Compound concentration 1000.0 nM
[9] = target: 5-hydroxytryptamine receptor 7 (Homo sapiens) (UniProt P34969); conditions: Compound concentration 10.0 uM
[10] = tested on: Phosphatidylinositol 4,5-bisphosphate 3-kinase catalytic subunit alpha isoform (Homo sapiens), P42336 [Q546K]; conditions: Compound concentration 1000.0 nM
[11] = target: Cyclin-dependent kinase 2 (Homo sapiens) (UniProt P24941); conditions: Compound concentration 1000.0 nM
[12] = target: Fibroblast growth factor receptor 2 (Homo sapiens) (UniProt P21802); conditions: Compound concentration 1000.0 nM
[13] = tested on: Receptor-type tyrosine-protein kinase FLT3 (Homo sapiens), P36888 [D835H]; conditions: Compound concentration 1000.0 nM
[14] = target: Phosphatidylinositol 4-kinase beta (Homo sapiens) (UniProt Q9UBF8); conditions: Compound concentration 1000.0 nM
[15] = tested on: Epidermal growth factor receptor (Homo sapiens), P00533 [G719C]; conditions: Compound concentration 1000.0 nM
[16] = target: Ribosomal protein S6 kinase alpha-1 (Homo sapiens) (UniProt Q15418); conditions: Compound concentration 1000.0 nM
[17] = target: Cyclin-G-associated kinase (Homo sapiens) (UniProt O14976); conditions: Compound concentration 1000.0 nM
[18] = tested on: Leucine-rich repeat serine/threonine-protein kinase 2 (Homo sapiens), Q5S007 [G2019S]; conditions: Compound concentration 1000.0 nM
[19] = target: Phosphatidylinositol 4,5-bisphosphate 3-kinase catalytic subunit beta isoform (Homo sapiens) (UniProt P42338); conditions: Compound concentration 1000.0 nM
[20] = target: Calcium/calmodulin-dependent protein kinase type 1B (Homo sapiens) (UniProt Q6P2M8); conditions: Compound concentration 1000.0 nM
[21] = target: Cyclin-dependent kinase 8 (Homo sapiens) (UniProt P49336); conditions: Compound concentration 1000.0 nM
[22] = target: Serine/threonine-protein kinase N1 (Homo sapiens) (UniProt Q16512); conditions: Compound concentration 1000.0 nM
[23] = target: Phosphatidylinositol 5-phosphate 4-kinase type-2 gamma (Homo sapiens) (UniProt Q8TBX8); conditions: Compound concentration 1000.0 nM
[24] = target: TRAF2 and NCK-interacting protein kinase (Homo sapiens) (UniProt Q9UKE5); conditions: Compound concentration 1000.0 nM
[25] = target: Serine/threonine-protein kinase RIO2 (Homo sapiens) (UniProt Q9BVS4); conditions: Compound concentration 1000.0 nM
[26] = target: Beta-1 adrenergic receptor (Homo sapiens) (UniProt P08588); conditions: Compound concentration 10.0 uM
[27] = target: Discoidin domain-containing receptor 2 (Homo sapiens) (UniProt Q16832); conditions: Compound concentration 1000.0 nM
[28] = target: T1, Alpha-2C adrenergic receptor (Homo sapiens) (UniProt P18825); conditions: Compound concentration 10.0 uM
T1 sequence (whole entry): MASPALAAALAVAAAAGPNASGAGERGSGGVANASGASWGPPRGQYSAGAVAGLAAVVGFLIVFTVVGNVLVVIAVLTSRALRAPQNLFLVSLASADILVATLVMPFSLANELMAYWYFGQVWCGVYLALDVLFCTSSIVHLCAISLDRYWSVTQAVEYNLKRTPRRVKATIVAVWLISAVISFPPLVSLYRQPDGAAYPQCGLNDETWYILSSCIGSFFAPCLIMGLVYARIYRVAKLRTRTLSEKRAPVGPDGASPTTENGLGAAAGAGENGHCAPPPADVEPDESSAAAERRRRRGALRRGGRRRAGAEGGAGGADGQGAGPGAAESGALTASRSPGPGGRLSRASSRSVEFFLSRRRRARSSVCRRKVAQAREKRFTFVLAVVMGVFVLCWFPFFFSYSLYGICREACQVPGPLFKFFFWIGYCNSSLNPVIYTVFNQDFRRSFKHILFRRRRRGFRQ

[29] = target: Casein kinase II subunit alpha' (Homo sapiens) (UniProt P19784); conditions: Compound concentration 1000.0 nM
[30] = target: Ribosomal protein S6 kinase alpha-2 (Homo sapiens) (UniProt Q15349); conditions: Compound concentration 1000.0 nM
[31] = tested on: Epidermal growth factor receptor (Homo sapiens), P00533 [G719S]; conditions: Compound concentration 1000.0 nM
[32] = target: Ribosomal protein S6 kinase alpha-5 (Homo sapiens) (UniProt O75582); conditions: Compound concentration 1000.0 nM
[33] = target: MAP kinase-activated protein kinase 2 (Homo sapiens) (UniProt P49137); conditions: Compound concentration 1000.0 nM
[34] = target: Platelet-derived growth factor receptor alpha (Homo sapiens) (UniProt P16234); conditions: Compound concentration 1000.0 nM
[35] = target: Tyrosine-protein kinase SYK (Homo sapiens) (UniProt P43405); conditions: Compound concentration 1000.0 nM
[36] = target: Activin receptor type-2B (Homo sapiens) (UniProt Q13705); conditions: Compound concentration 1000.0 nM
[37] = target: Tyrosine-protein kinase JAK3 (Homo sapiens) (UniProt P52333); conditions: Compound concentration 1000.0 nM
[38] = tested on: Mast/stem cell growth factor receptor Kit (Homo sapiens), P10721 [D816H]; conditions: Compound concentration 1000.0 nM
[39] = target: Serine/threonine-protein kinase 16 (Homo sapiens) (UniProt O75716); conditions: Compound concentration 1000.0 nM

Chain of MAP kinase-activated protein kinase 2 (Homo sapiens) (P49137 whole entry, looked up): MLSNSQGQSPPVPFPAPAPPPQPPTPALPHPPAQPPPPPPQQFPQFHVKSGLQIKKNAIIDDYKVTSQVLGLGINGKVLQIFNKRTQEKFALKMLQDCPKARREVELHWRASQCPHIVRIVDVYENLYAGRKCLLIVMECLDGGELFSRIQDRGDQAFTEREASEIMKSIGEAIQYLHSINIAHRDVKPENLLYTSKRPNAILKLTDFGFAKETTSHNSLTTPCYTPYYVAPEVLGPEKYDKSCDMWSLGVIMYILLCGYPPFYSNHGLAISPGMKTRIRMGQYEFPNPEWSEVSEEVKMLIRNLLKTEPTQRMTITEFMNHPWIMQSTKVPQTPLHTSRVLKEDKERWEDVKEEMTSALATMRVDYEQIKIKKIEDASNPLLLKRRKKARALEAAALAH
Chain of Discoidin domain-containing receptor 2 (Homo sapiens) (Q16832 whole entry, the tested form may be a part): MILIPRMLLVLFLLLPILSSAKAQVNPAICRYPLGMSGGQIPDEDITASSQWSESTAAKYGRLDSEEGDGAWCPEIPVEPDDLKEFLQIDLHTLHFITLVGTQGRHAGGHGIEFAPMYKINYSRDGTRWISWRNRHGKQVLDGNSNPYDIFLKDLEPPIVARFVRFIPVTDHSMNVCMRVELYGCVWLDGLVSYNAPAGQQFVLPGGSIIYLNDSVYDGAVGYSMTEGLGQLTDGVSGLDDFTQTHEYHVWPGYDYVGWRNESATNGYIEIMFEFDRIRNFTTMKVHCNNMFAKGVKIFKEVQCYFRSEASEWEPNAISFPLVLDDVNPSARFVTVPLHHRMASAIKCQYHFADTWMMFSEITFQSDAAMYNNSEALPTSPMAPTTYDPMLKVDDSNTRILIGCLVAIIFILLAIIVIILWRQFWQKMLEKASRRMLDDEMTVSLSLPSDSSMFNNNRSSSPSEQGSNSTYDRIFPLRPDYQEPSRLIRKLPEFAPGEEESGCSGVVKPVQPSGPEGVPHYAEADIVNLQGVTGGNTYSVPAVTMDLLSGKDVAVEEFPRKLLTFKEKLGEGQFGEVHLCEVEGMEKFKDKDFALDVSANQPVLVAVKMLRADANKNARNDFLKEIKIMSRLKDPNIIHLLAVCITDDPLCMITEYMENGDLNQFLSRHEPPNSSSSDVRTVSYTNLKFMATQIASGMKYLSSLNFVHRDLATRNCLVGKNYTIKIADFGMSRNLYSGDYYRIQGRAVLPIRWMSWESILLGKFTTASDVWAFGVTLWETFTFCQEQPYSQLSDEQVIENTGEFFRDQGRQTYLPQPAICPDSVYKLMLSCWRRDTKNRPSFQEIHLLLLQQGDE
Chain of Calcium/calmodulin-dependent protein kinase type 1B (Homo sapiens) (Q6P2M8 whole entry): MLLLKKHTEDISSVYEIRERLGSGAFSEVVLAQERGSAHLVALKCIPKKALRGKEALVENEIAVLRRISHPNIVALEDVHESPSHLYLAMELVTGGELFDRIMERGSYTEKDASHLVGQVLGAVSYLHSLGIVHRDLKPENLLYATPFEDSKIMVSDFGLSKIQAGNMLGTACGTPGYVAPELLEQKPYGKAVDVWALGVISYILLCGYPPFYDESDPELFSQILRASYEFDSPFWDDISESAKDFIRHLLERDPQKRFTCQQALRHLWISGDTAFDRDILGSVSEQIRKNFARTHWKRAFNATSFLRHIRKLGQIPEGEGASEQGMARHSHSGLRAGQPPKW
Chain of Ribosomal protein S6 kinase alpha-2 (Homo sapiens) (Q15349 whole entry): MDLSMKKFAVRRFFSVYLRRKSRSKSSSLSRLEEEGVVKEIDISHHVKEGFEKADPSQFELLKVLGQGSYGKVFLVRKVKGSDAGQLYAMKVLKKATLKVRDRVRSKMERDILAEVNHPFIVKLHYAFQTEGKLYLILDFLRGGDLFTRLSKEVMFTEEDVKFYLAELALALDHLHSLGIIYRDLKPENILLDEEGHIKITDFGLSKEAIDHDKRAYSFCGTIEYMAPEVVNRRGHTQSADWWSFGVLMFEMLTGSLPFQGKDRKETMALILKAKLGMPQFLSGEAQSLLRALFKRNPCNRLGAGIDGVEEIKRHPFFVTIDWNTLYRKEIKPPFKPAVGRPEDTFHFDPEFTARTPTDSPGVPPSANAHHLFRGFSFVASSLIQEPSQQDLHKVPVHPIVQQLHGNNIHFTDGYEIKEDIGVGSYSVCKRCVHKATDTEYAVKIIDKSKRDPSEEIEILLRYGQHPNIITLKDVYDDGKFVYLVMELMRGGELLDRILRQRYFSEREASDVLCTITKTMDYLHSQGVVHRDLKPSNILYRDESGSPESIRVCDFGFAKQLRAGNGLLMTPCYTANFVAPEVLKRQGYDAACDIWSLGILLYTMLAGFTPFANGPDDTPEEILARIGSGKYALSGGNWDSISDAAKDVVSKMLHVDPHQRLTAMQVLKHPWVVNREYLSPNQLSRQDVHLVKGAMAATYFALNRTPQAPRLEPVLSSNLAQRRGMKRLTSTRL
Chain of Phosphatidylinositol 4,5-bisphosphate 3-kinase catalytic subunit beta isoform (Homo sapiens) (P42338 whole entry, looked up, canonical isoform): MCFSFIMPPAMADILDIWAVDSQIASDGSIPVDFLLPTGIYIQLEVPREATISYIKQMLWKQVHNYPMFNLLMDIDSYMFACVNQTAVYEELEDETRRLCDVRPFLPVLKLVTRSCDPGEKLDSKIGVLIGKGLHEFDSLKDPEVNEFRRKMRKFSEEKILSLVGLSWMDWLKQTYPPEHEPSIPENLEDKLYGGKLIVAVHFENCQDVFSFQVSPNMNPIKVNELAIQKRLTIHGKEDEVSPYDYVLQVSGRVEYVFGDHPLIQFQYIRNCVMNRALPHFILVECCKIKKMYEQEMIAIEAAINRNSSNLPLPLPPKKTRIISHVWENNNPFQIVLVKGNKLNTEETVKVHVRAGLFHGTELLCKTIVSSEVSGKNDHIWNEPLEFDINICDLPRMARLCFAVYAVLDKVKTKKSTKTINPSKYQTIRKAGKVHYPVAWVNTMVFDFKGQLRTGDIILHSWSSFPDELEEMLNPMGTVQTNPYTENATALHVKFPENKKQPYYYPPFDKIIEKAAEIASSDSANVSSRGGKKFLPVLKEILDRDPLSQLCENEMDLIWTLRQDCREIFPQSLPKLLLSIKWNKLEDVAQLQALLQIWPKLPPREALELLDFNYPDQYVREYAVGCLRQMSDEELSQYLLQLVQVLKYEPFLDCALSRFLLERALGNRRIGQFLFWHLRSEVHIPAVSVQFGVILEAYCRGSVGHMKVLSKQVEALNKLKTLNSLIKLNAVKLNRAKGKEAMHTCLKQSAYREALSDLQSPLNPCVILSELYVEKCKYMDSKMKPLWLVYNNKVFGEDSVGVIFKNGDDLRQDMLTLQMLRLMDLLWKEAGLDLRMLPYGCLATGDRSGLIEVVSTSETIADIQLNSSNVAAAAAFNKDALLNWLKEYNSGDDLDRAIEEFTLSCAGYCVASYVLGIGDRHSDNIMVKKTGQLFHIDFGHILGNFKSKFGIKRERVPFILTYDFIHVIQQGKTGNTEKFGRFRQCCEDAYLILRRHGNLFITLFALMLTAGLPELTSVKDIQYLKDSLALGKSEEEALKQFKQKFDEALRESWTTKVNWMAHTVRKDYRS
Chain of Activated CDC42 kinase 1 (Homo sapiens) (Q07912 whole entry, looked up): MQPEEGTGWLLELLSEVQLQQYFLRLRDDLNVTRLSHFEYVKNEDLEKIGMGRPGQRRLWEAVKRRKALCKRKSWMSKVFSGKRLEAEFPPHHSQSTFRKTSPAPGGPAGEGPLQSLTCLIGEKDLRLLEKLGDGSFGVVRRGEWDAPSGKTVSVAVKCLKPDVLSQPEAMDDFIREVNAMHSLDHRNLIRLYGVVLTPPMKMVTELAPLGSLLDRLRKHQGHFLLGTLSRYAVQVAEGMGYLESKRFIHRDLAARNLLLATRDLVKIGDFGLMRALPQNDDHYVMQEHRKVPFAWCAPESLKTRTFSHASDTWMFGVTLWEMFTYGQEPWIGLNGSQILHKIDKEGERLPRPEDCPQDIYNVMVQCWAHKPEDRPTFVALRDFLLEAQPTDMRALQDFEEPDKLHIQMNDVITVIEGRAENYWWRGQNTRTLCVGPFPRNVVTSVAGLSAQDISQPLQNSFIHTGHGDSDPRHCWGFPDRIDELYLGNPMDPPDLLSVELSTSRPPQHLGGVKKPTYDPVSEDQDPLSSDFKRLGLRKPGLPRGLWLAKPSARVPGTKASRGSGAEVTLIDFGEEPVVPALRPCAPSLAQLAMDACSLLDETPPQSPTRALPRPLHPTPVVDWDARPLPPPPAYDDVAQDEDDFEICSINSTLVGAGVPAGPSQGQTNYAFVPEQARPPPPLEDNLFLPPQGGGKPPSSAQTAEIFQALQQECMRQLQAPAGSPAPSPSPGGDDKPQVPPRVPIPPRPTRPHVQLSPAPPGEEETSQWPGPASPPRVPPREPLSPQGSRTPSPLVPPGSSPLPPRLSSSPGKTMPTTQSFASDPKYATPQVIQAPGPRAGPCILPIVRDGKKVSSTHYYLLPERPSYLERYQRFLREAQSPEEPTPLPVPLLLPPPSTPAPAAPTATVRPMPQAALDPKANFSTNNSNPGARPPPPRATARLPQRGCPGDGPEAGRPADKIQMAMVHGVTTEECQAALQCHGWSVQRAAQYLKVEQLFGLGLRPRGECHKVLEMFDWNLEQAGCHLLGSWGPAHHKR
Chain of Wee1-like protein kinase 2 (Homo sapiens) (P0C1S8 whole entry, looked up): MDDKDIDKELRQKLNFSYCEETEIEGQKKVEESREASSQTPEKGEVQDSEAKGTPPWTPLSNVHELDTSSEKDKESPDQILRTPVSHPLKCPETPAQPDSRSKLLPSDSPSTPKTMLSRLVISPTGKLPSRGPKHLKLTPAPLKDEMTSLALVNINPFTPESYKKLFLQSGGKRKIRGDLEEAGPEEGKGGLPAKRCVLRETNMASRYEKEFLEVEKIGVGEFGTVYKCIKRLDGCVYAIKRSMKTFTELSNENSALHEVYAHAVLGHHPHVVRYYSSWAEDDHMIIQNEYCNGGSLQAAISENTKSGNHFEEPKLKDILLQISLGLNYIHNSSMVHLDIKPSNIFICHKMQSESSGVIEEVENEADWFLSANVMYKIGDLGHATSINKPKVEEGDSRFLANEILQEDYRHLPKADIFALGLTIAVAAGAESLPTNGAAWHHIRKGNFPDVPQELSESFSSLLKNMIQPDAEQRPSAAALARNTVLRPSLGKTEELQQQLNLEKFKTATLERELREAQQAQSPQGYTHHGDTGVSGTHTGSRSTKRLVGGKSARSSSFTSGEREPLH

O=C(O)c1cc(-c2ccc(C3CCNCC3)cc2)c2ccc(-c3ccc(C(F)(F)F)cc3)cc2c1 [PPTN]
inactive: residual activity [1] 100% | residual activity [2] 100% | residual activity [3] 100% | residual activity [4] 100% | residual activity [5] 100% | residual activity [6] 100% | residual activity [7] 100% | residual activity [8] 100% | inhibition [9] 17.8% | residual activity [10] 100% | residual activity [11] 100% | residual activity [12] 100% | residual activity [13] 81% | residual activity [14] 100% | residual activity [15] 100% | residual activity [16] 100% | residual activity [17] 100% | residual activity [18] 100% | residual activity [19] 100% | residual activity [20] 100% | residual activity [21] 100% | residual activity [22] 100% | residual activity [23] 100% | residual activity [24] 100% | residual activity [25] 100% | inhibition [26] 24.7% | residual activity [27] 100% | inhibition [28] 30.2% | residual activity [29] 100% | residual activity [30] 100% | residual activity [31] 100% | residual activity [32] 100% | residual activity [33] 51% | residual activity [34] 100% | residual activity [35] 100% | residual activity [36] 100% | residual activity [37] 100% | residual activity [38] 100% | residual activity [39] 100%

Cc1c(C(=O)O)cc(-c2ccc(C3CCNCC3)cc2)c2ccc(-c3ccc(C(F)(F)F)cc3)cc12 [PPTN-NC]
inactive: residual activity [1] 100% | residual activity [2] 100% | residual activity [3] 100% | residual activity [4] 100% | residual activity [5] 100% | residual activity [6] 100% | residual activity [7] 100% | residual activity [8] 100% | inhibition [9] -3.66% | residual activity [10] 100% | residual activity [11] 100% | residual activity [12] 100% | residual activity [13] 90% | residual activity [14] 100% | residual activity [15] 100% | residual activity [16] 100% | residual activity [17] 100% | residual activity [18] 100% | residual activity [19] 100% | residual activity [20] 100% | residual activity [21] 100% | residual activity [22] 100% | residual activity [23] 100% | residual activity [24] 100% | residual activity [25] 100% | inhibition [26] 29.2% | residual activity [27] 100% | inhibition [28] 46.4% | residual activity [29] 100% | residual activity [30] 100% | residual activity [31] 94% | residual activity [32] 100% | residual activity [33] 88% | residual activity [34] 100% | residual activity [35] 100% | residual activity [36] 88% | residual activity [37] 100% | residual activity [38] 100% | residual activity [39] 100%
